Data set [1] relates to Mycobacterium tuberculosis. The data set is described as follows: Antitubercular activity against Mycobacterium tuberculosis H37Rv by microplate alamar blue assay. The data set is classed as functional. (In general: The colour change of resazurin is a common sign of viable cells or microbes.)
For another data set, the system named is Vero. The data set is described as follows: Cytotoxicity against African green monkey Vero cells assessed as reduction in cell viability after 72 hrs by tetrazolium dye assay. In kind it is cell-based. The settings on record: Chlorocebus sabaeus.
Data set [2] can be described thus: Selectivity index, ratio of IC50 for African green monkey Vero cells to MIC90 for Mycobacterium tuberculosis H37Rv. The data set is classed as toxicity. The settings on record: read-out: Selectivity Index.

As a reminder, the MIC90 is the lowest concentration that inhibits either 90% of growth or 90% of the strains tested, depending on the study. The IC50 is the concentration that inhibits the measured activity by half.

Structures are written as SMILES. ≈ marks a conversion by molar mass, not a printed value.

Regarding `Cc1cc2c(cc1O)[nH]c1ccccc12`, the MIC90 in data set [1] worked out at 41.5 µM (≈ 8.19 µg/mL).
In data set [1], `COc1ccc2c([nH]c3cc(O)c(C)cc32)c1C=O` came in with an MIC90 of more than 50 µM.
`COc1ccc2[nH]c3c(O)cc(C=O)cc3c2c1` came in with an MIC90 in data set [1] of 6.9 µM (≈ 1.66 µg/mL). For the same compound, the IC50 in the data set with Vero was more than 50 µM. For the same compound, the selectivity ratio in data set [2] is more than 7.2.
As to `O=C(O)c1cc2c([nH]c3ccccc32)c(-c2c[nH]c3ccccc23)c1O`, the MIC90 in data set [1] is more than 50 µM.
`CCCCCCCc1c(C)c(OC)c(OC)c2c1[nH]c1ccccc12` showed an MIC90 in data set [1] of 6.2 µM (≈ 2.1 µg/mL). Moreover, in the data set with Vero, the IC50 was more than 50 µM. For the same compound, in data set [2], the selectivity ratio was more than 8.1.
The compound `COc1ccc2[nH]c3c(OC)cc(C)cc3c2c1` came in with an MIC90 in data set [1] of 45.1 µM (≈ 10.9 µg/mL).
As to `Cc1ccc(S(=O)(=O)Oc2cc(C)cc3c2[nH]c2cc(O)ccc23)cc1`, in data set [1], the MIC90 came out at 19.7 µM (≈ 7.24 µg/mL).
`COC(=O)c1cc2c(cc1OC)[nH]c1ccc(OC)cc12` registered an MIC90 in data set [1] of 24.4 µM (≈ 6.96 µg/mL).
Take `COC(=O)c1cc2c(cc1O)[nH]c1ccc(O)cc12`: the MIC90 in data set [1] turned out to be 29.1 µM (≈ 7.49 µg/mL).
In data set [1], `COc1cc2[nH]c3cc(O)ccc3c2cc1C=O` had an MIC90 of 36.7 µM (≈ 8.85 µg/mL).
The compound `COc1cc2[nH]c3c(C=O)c(OC)ccc3c2cc1C` returned an MIC90 in data set [1] of more than 50 µM.
In the case of `Cc1cc2c(cc1OCc1ccccc1)[nH]c1ccccc12`, in data set [1], the MIC90 is more than 50 µM.
Take `O=Cc1cc2c(cc1O)[nH]c1c(O)cccc12`: the MIC90 in data set [1] was 3.7 µM (≈ 0.841 µg/mL). Moreover, in the data set with Vero, the IC50 is more than 50 µM. The selectivity ratio in data set [2] was more than 13.
For `COc1cccc2c1[nH]c1cc(O)c(C)cc12`, the MIC90 in data set [1] is more than 50 µM.
On the same count and under the same terms, with `C#CC(C)(C)Oc1ccc2c(c1)[nH]c1c(OS(=O)(=O)c3ccc(C)cc3)cc(C)cc12` the figure was 20.8 µM (≈ 9.02 µg/mL); with `COC(=O)c1cc2c(cc1O)[nH]c1cc(OC)ccc12`, 47.8 µM (≈ 13 µg/mL); with `COc1ccc2c([nH]c3c(OC)cc(C)cc32)c1OC`, 46.9 µM (≈ 12.7 µg/mL).
The same measure, in the same setting: the value for `CC(C)=CCc1ccc2[nH]c3ccccc3c2c1` was 22.6 µM (≈ 5.32 µg/mL).
The compound `COc1ccc2[nH]c3cc(O)c(C)cc3c2c1` came in with an MIC90 in data set [1] of 1.5 µM (≈ 0.341 µg/mL). The IC50 with Vero was more than 50 µM. Moreover, the selectivity ratio in data set [2] was more than 33.
Regarding `COc1cc2[nH]c3ccccc3c2cc1C(=O)O`, in data set [1], the MIC90 was more than 50 µM.
The same measure, in the same setting: with `COc1ccc2[nH]c3c(OC)cc(C=O)cc3c2c1` the figure was more than 50 µM; with `CC(C)=CCc1c(O)ccc2c1[nH]c1c(OS(=O)(=O)c3ccc(C)cc3)cc(C)cc12`, 19.4 µM (≈ 8.45 µg/mL).
In turn, `CC(C)=CC(=O)Oc1ccc2c(c1)[nH]c1c(OS(=O)(=O)c3ccc(C)cc3)cc(C)cc12` gave an MIC90 in data set [1] of 6.2 µM (≈ 2.79 µg/mL). Besides, the IC50 in the data set with Vero was more than 50 µM. Also, the selectivity ratio in data set [2] was more than 8.1.
In data set [1], `COC(=O)c1cc2c([nH]c3ccccc32)c(-c2cn(S(=O)(=O)c3ccccc3)c3ccccc23)c1O` yielded an MIC90 of 2.9 µM (≈ 1.44 µg/mL). The 50% inhibitory concentration (IC50) in the data set on Vero was more than 50 µM. For the same compound, the selectivity ratio in data set [2] was more than 17.2.
In data set [1], `CC(C)=CCC/C(C)=C/Cc1c(O)c(C=O)cc2c1[nH]c1ccccc12` showed an MIC90 of 24.1 µM (≈ 8.37 µg/mL).
`O=C(O)c1cc2c(cc1O)[nH]c1ccc(O)cc12`: the MIC90 in data set [1] was more than 50 µM.
Still for that read-out and setting: with `COc1ccc2c([nH]c3c(O)cc(C)cc32)c1CC=C(C)C` the figure was 23.1 µM (≈ 6.82 µg/mL).
In data set [1], `Cc1cc2c(cc1OCc1ccccc1)[nH]c1c(O)cccc12` showed an MIC90 of 11.8 µM (≈ 3.58 µg/mL). The IC50 in the data set on Vero came to 33.7 µM. In addition, the selectivity ratio in data set [2] is 2.9.
Compound `COc1ccc2c(c1)[nH]c1c(Cc3ccccc3)c(O)c(C=O)cc12` had an MIC90 in data set [1] of 14.4 µM (≈ 4.77 µg/mL). Further, the IC50 in the data set with Vero was 74.1 µM. Moreover, in data set [2], the selectivity ratio turned out to be 5.1.
The like results for `COc1cccc2[nH]c3cc(OCc4ccccc4)c(C)cc3c12` were, in that order, 9.3 µM (≈ 2.95 µg/mL), more than 50 µM and more than 5.4.
`COC(=O)c1cc2c([nH]c3ccccc32)c(I)c1O` displayed an MIC90 in data set [1] of 24.6 µM (≈ 9.03 µg/mL).
`COc1cccc2c1[nH]c1cc(O)c(C=O)cc12` came in with an MIC90 in data set [1] of 29.3 µM (≈ 7.07 µg/mL).
Still for that read-out and setting: the value for `COC(=O)c1cc(OC)c2[nH]c3ccc(OC)cc3c2c1` was 46.7 µM (≈ 13.3 µg/mL).
Still for that read-out and setting: the value for `CC(C)=CCC/C(C)=C/Cc1c(O)ccc2c1[nH]c1c(OS(=O)(=O)c3ccc(C)cc3)cc(C)cc12` was 20.5 µM (≈ 10.3 µg/mL).
Turning to `C=CC(C)(C)c1ccc2[nH]c3ccccc3c2c1`, in data set [1], the MIC90 came to 11 µM (≈ 2.59 µg/mL). In addition, the IC50 with Vero is more than 50 µM. Besides, the selectivity ratio in data set [2] was more than 4.5.
The corresponding values for `COc1ccc2c([nH]c3cc(O)c(C=O)cc32)c1C=O` are 2.8 µM (≈ 0.754 µg/mL), 47.1 µM and 16.8.
Consider `CC(C)=CCc1c(O)ccc2c1[nH]c1cc(O)c(C)cc12`, for which the MIC90 in data set [1] was determined as 29.4 µM (≈ 8.27 µg/mL).
In turn, `CC(C)=CCc1c(O)c(C)cc2c1[nH]c1ccccc12` yielded an MIC90 in data set [1] of 11.1 µM (≈ 2.95 µg/mL). Also, the IC50 with Vero was more than 50 µM. The selectivity ratio in data set [2] was more than 4.5.
`COc1ccc2c(c1)[nH]c1cc(O)c(C=O)cc12` came in with an MIC90 in data set [1] of 24.3 µM (≈ 5.86 µg/mL).
Same read-out and setting: the value for `COc1ccc2c(c1)[nH]c1c(CC=C(C)C)c(O)c(C=O)cc12` was 20.6 µM (≈ 6.37 µg/mL).
Consider `COc1ccc2c([nH]c3cc(O)c(C)cc32)c1CC=C(C)C`, for which the MIC90 in data set [1] was found to be 11.9 µM (≈ 3.52 µg/mL). In addition, the IC50 with Vero is more than 50 µM. The selectivity ratio in data set [2] is more than 4.2.
For the compound `COc1ccc2c(c1)[nH]c1cc(O)c(C)cc12`, the MIC90 in data set [1] is more than 50 µM.
Consider `COC1=C(C)C(=O)c2[nH]c3ccccc3c2C1=O` [3-METHOXY-2-METHYLCARBAZOLE-1,4-QUINONE], for which the MIC90 in data set [1] worked out at 4 µM (≈ 0.965 µg/mL). The IC50 in the data set with Vero was more than 50 µM. For the same compound, the selectivity ratio in data set [2] was more than 12.5.
With `COc1c(C)c(C[C@@H](C)O)c2[nH]c3ccc(CC=C(C)C)cc3c2c1O` [(R)-(-)-NEOCARAZOSTATIN B], the MIC90 in data set [1] was 34.5 µM (≈ 12.2 µg/mL).
`COC(=O)c1cc2c(cc1OC)[nH]c1ccccc12` [CLAUSINE L]: the MIC90 in data set [1] is more than 50 µM.
`COc1cc2[nH]c3ccccc3c2cc1C=O` [GLYCOSININE] returned an MIC90 in data set [1] of 39.6 µM (≈ 8.92 µg/mL).
`COc1ccc2[nH]c3cc(OC)c(C=O)cc3c2c1` [GLYCOZOLIDAL] showed an MIC90 in data set [1] of more than 50 µM.
The compound `COc1ccc2[nH]c3cc(OC)c(C)cc3c2c1` [GLYCOZOLIDINE] gave an MIC90 in data set [1] of more than 50 µM.
With `CC(C)=CCc1c(O)c(C=O)cc2c1[nH]c1ccccc12` [HEPTAPHYLLINE], the MIC90 in data set [1] is more than 50 µM.
Turning to `NNC(=O)c1ccncc1` [ISONIAZID], the MIC90 in data set [1] was found to be 0.24 µM (≈ 0.0329 µg/mL). Further, the IC50 in the data set on Vero is more than 50 µM. For the same compound, the selectivity ratio in data set [2] is more than 208.
Take `COC(=O)c1cc2c(cc1O)[nH]c1ccccc12` [MUKONIDINE]: the MIC90 in data set [1] amounted to 23.3 µM (≈ 5.62 µg/mL).
`CO[C@H]1/C=C/O[C@@]2(C)Oc3c(C)c(O)c4c(O)c(c(/C=N/N5CCN(C)CC5)c(O)c4c3C2=O)NC(=O)/C(C)=C\C=C\[C@H](C)[C@H](O)[C@@H](C)[C@@H](O)[C@@H](C)[C@H](OC(C)=O)[C@@H]1C` [RIFAMPIN] registered an MIC90 in data set [1] of 0.02 µM (≈ 0.0165 µg/mL). Moreover, in the data set with Vero, the IC50 was more than 50 µM. The selectivity ratio in data set [2] is more than 2500.

The record behind these values is ChEMBL document CHEMBL4043063, “Anti-tuberculosis activity and structure-activity relationships of oxygenated tricyclic carbazole alkaloids and synthetic derivatives” (Bioorg Med Chem, 2017).
